SMILES	melting point [°C]
Nc1nc2cccnc2c2c1nc(O)n2Cc1ccccc1 [Example 2, 4-Amino-1-benzyl-1H-imidazo[4,5-c][1,5]naphthyridin-2-ol]	> 250
CCOc1nc2c(N)nc3cccnc3c2n1[C@@H](C)c1ccccc1 [Example 5, 2-Ethoxy-1-[(1S)-1-phenylethyl]-1H-imidazo[4,5-c][1,5]naphthyridin-4-amine]	187 to 190
C[C@@H](c1ccccc1)n1c(O)nc2c(N)nc3cccnc3c21 [Example 6, 4-amino-1-[(1S)-1-phenylethyl]-1H-imidazo[4,5-c][1,5]naphthyridin-2-ol]	241 to 243

Results, then the molecule that gave them:

melting point [°C]	SMILES
197 to 200	CCOc1nc2c(N)nc3cccnc3c2n1CC1CCOCC1 [Example 3, 2-Ethoxy-1-(tetrahydro-2H-pyran-4-ylmethyl)-1H-imidazo[4,5-c][1,5]naphthyridin-4-amine]
250 to 260	Nc1nc2cccnc2c2c1nc(O)n2CC1CCOCC1 [Example 4, 4-Amino-1-(tetrahydro-2H-pyran-4-ylmethyl)-1H-imidazo[4,5-c][1,5]naphthyridin-2-ol]
